Data as given in ChEMBL document CHEMBL1201862, “PubChem BioAssay data set” (2004).
The source made the active and inactive calls.

Tests used:
[1] = NIH-3T3 fibroblast cytotoxicity, dose response, cytotoxicity control, cell-based, fluorescence, Alamar Blue, secondary assay (AID 2327); assay type: functional;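 also: NIH-3T3 mouse fibroblasts cultured with fluconazole at 8 µg/mL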
[2] = target: Heat shock protein HSP 90-alpha (Homo sapiens, UniProt P07900); assay type: functional, organism-based
[3] = fluconazole-exposed Candida albicans growth modulators – fluorescence, retest, confirmation (AID 2467); assay type: functional, cell-based
[4] = Counterscreen for AddAB inhibitors: absorbance-based bacterial cell-based high throughput dose response assay for inhibitors of bacterial viability. [Related pubchem assays (depositor defined):AID435030, AID449728, AID449731, AID488942, AID488955, AID488956]; assay type: functional
[5] = non-specific 3'UTR reporter inhibition in Clone20-Shn3RL – cell-based, Renilla luciferase, cherry-picked, counter-screen for Shn3 inhibitor project, dose response (AID 624133); assay type: functional
Streptokinase A = target: T1, Streptokinase A (Streptococcus pyogenes serotype M1, UniProt P10520); assay: viability-normalized secreted streptokinase activity reduction – plasminogen activation absorbance, OD405, dose response (AID 1914); assay type: functional, Streptococcus pyogenes M1 GAS;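 also: secreted streptokinase activity via plasminogen activation per viability signal from cell pellet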
T1 sequence (P10520 whole entry): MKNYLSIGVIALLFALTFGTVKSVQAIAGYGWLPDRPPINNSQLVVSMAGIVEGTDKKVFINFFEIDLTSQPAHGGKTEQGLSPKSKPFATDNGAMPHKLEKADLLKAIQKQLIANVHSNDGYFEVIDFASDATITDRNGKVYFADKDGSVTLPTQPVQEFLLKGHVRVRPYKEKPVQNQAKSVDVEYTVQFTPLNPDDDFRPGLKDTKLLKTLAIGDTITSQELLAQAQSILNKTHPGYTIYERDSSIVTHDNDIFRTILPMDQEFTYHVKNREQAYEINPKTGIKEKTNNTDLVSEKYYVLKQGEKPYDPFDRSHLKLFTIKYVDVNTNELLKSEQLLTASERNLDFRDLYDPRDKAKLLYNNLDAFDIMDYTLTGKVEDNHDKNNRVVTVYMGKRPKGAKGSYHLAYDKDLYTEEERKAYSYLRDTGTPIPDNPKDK

[6] = target: Protein kinase C zeta type (Homo sapiens, UniProt Q05513); assay type: functional;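 also: measured as one member of a broad kinase profiling panel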
[7] = target: Fibroblast growth factor receptor 3 (Homo sapiens, UniProt P22607); assay type: functional
[8] = target: Tyrosine-protein kinase FRK (Homo sapiens, UniProt P42685); assay type: functional;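 also: FRK tested as one member of a kinome panel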
[9] = target: Mitogen-activated protein kinase 12 (Homo sapiens, UniProt P53778); assay type: functional;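 also: measured as one member of a kinome-wide kinase profiling panel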
[10] = target: MAP kinase-interacting serine/threonine-protein kinase 2 (Homo sapiens, UniProt Q9HBH9); assay type: functional
[11] = target: Casein kinase I isoform gamma-1 (Homo sapiens, UniProt Q9HCP0); assay type: functional;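 also: measured as the CSNK1G1 member of a kinome profiling panel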
[12] = target: Protein kinase C iota type (Homo sapiens, UniProt P41743); assay type: functional;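 also: measured within a kinome-wide kinase panel, PRKCI as panel member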
[13] = target: Serine/threonine-protein kinase D2 (Homo sapiens, UniProt Q9BZL6); assay type: functional;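 also: measured against PRKD2 as one member of a kinome-wide kinase profiling panel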
[14] = target: Lymphokine-activated killer T-cell-originated protein kinase (Homo sapiens, UniProt Q96KB5); assay type: functional;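 also: value comes from a kinase panel screen in which TOPK was one of the panel members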
[15] = target: STE20-like serine/threonine-protein kinase (Homo sapiens, UniProt Q9H2G2); assay type: functional
[16] = target: Cyclin-dependent kinase 2 (Homo sapiens, UniProt P24941); assay type: functional;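 also: CDK2 measured as one member of a broad kinome profiling panel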
[17] = target: Cyclin-dependent kinase 5 (Homo sapiens, UniProt Q00535); assay type: functional;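 also: CDK5 measured as one member of a kinase profiling panel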
[18] = target: MAP kinase-activated protein kinase 5 (Homo sapiens, UniProt Q8IW41); assay type: functional;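 also: measured as one member of a kinome panel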
Chain of MAP kinase-activated protein kinase 5 (Q8IW41 whole entry): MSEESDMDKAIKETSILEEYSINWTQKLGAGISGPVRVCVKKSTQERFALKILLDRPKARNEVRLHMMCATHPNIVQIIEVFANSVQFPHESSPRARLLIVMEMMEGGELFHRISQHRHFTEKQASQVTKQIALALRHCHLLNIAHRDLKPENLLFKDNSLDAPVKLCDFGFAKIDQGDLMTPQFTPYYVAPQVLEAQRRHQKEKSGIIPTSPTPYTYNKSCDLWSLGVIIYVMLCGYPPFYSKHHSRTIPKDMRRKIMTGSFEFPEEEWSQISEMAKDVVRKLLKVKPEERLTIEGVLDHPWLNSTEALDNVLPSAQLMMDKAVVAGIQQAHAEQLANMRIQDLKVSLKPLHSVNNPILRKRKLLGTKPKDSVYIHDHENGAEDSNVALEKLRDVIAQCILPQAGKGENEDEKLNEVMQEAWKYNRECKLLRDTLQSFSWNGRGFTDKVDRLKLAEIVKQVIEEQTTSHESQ

Chain of Protein kinase C iota type (P41743 whole entry): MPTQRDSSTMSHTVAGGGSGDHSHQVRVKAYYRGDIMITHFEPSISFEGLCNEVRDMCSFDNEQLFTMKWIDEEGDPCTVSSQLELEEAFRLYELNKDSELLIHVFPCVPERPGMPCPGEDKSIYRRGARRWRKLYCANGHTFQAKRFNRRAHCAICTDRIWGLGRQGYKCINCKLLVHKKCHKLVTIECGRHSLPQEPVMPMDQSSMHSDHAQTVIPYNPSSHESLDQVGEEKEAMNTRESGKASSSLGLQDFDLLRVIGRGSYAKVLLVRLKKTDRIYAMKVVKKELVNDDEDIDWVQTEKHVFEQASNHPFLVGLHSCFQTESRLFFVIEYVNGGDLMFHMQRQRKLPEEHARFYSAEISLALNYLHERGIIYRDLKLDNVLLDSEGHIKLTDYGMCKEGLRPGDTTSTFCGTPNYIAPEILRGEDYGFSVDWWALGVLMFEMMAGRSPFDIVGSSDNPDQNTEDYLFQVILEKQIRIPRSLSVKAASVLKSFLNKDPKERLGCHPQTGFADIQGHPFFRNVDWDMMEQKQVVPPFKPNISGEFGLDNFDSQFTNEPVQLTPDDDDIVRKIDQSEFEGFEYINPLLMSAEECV
Chain of Protein kinase C zeta type (Q05513 whole entry): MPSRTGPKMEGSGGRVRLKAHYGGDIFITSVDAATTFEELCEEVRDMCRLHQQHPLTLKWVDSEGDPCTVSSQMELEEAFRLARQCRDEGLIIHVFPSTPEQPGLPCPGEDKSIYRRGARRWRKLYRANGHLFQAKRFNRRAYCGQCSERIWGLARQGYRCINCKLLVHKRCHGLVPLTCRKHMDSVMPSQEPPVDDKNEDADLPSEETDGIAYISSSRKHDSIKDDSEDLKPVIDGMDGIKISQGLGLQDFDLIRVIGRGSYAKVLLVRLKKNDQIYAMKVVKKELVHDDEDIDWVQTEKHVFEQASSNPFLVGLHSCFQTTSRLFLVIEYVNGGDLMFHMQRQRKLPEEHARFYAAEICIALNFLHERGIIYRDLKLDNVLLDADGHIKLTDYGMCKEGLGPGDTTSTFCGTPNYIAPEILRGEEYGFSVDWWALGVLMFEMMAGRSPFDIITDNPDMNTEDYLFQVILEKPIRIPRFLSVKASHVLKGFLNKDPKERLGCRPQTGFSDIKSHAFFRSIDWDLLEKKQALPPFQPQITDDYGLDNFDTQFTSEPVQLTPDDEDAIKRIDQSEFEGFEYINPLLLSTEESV
Chain of Cyclin-dependent kinase 5 (Q00535 whole entry): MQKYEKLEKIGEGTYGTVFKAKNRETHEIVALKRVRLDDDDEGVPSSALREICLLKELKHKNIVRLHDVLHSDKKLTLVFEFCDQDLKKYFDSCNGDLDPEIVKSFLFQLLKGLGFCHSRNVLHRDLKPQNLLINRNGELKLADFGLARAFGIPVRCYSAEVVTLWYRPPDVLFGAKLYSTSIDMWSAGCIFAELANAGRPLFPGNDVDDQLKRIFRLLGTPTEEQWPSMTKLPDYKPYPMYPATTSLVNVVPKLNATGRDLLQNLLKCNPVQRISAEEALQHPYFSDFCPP
Chain of Lymphokine-activated killer T-cell-originated protein kinase (Q96KB5 whole entry): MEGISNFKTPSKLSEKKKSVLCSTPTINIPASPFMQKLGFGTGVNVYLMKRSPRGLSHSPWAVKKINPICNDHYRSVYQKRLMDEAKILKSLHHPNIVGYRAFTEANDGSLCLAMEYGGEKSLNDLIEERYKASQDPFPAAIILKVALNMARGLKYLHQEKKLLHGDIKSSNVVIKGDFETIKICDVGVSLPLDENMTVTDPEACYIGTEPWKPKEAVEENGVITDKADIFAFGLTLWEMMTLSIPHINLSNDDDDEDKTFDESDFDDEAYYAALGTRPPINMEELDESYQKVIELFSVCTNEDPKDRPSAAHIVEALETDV
Chain of Casein kinase I isoform gamma-1 (Q9HCP0 whole entry, canonical isoform): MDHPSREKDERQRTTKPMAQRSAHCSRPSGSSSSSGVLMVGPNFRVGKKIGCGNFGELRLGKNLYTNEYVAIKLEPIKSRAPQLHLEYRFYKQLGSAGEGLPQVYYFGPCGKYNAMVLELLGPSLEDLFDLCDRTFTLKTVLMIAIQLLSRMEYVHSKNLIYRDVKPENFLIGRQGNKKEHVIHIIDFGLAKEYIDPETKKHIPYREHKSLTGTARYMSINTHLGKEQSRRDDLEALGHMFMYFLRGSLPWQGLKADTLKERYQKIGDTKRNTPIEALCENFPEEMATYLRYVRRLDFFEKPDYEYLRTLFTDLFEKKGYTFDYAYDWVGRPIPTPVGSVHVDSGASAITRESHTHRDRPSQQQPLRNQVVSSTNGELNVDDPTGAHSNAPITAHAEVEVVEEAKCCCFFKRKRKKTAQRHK
Chain of STE20-like serine/threonine-protein kinase (Q9H2G2 whole entry): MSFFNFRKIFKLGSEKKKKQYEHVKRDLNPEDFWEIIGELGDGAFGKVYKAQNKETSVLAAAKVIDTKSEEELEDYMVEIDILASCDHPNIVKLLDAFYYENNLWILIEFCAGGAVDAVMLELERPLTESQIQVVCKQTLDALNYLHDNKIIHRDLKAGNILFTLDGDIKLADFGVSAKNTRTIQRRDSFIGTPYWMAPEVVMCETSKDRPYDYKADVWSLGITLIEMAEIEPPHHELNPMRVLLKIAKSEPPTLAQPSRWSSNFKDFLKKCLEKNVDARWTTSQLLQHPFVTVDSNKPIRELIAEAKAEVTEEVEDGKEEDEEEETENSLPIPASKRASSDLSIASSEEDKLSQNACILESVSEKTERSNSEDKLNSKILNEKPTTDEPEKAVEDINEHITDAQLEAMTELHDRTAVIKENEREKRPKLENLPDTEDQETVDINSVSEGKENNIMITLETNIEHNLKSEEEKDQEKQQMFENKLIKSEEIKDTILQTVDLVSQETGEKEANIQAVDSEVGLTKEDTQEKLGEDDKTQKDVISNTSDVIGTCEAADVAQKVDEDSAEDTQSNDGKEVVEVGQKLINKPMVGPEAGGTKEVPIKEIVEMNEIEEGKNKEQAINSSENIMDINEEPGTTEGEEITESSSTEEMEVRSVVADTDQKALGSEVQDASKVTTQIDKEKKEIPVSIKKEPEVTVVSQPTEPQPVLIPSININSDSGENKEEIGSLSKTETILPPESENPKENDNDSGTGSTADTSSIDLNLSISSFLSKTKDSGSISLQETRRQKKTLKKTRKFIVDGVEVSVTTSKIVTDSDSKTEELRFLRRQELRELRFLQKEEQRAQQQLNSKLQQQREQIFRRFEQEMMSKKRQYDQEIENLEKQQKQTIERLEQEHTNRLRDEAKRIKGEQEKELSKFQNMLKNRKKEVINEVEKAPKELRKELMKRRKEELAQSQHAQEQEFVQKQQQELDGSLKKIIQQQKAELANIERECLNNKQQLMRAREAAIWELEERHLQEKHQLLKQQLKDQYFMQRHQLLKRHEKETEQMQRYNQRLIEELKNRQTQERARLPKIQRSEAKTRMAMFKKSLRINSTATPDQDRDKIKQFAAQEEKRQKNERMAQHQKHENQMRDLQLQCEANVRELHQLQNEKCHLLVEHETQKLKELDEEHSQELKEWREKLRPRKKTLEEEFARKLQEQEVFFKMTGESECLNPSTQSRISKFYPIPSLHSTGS
Chain of Tyrosine-protein kinase FRK (P42685 whole entry): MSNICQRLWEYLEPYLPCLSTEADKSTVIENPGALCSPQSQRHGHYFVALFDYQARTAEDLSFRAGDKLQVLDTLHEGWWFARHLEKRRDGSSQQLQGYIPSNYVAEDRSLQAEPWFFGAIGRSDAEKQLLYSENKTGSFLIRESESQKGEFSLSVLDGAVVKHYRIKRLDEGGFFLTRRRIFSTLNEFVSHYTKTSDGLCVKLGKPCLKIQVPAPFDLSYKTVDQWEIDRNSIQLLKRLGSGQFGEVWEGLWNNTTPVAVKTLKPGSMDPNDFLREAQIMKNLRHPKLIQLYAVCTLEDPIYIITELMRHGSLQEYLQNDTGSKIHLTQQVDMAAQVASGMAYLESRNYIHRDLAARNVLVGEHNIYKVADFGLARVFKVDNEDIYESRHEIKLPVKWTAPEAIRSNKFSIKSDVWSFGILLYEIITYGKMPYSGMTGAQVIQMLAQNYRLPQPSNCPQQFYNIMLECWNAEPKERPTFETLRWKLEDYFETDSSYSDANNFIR
Chain of MAP kinase-interacting serine/threonine-protein kinase 2 (Q9HBH9 whole entry, canonical isoform): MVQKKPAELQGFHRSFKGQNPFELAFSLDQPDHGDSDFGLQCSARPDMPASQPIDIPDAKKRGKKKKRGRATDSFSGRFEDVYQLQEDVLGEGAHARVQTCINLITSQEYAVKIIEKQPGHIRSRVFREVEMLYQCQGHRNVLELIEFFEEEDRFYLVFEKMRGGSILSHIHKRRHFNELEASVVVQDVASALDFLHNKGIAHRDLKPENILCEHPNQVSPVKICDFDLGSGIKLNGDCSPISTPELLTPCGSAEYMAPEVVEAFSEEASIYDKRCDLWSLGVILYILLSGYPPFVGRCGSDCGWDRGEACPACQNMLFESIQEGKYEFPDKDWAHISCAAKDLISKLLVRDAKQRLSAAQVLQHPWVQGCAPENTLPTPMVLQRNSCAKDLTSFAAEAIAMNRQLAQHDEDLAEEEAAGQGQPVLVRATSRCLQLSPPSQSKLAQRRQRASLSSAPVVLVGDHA

For `Cc1cc(NC(c2ccc(Cl)cc2)c2ccc3cccnc3c2O)no1` (centres undefined), the EC50 [1] was 22 µM (active), the AC50 [2] was 3.87 µM (active) and the EC50 [3] was 0.741 µM (active). For the same compound, the IC50 [4] was > 119 µM (inactive), the AC50 [5] was 0.677 µM (active) and the EC50 (Streptokinase A) was > 150 µM (not active).

For `CS(=O)(=O)N(Cc1ccc2[nH]c(=O)c3cccn3c2c1)C1CC1`, the Ki [6] was > 7.94 µM (inactive), the Ki [7] was > 2 µM (inactive) and the Ki [8] was > 2.51 µM (inactive). For the same compound, the Ki [9] was 0.316 µM (active), the Ki [10] was 0.794 µM (active) and the Ki [11] was 0.631 µM (active). For the same compound, the Ki [12] was > 5.01 µM (inactive), the Ki [13] was 0.2 µM (active) and the Ki [14] was 2 µM (active). The Ki [15] was > 10 µM (inactive), the Ki [16] was > 7.94 µM (inactive) and the Ki [17] was > 6.31 µM (inactive). For the same compound, the Ki [18] was 0.01 µM (active).
